# According to patent publication US10570179B2, “Substituted urea depsipeptide analogs as activators of the CLPP endopeptidase” (priority 2016, dated 2020):
# Read-outs that look alike come from different tables or passages of the source. Numbered stars: 1 amine (or outer) side, 2 acyl side, 3 side chain; on linkers, the order of the positions; unused ones are H or OH. Bridge positions count the residues as written; N and C are the ends. Square brackets hold non-standard residues; d marks the D form. Peptide text beside a SMILES is read from it. * marks the point of attachment. X5 = O=C([C@@H]1C[C@@H](OP(=O)(O)O)CN1[*:1])[*:2]; Piperazine(2S-CO,4-Me) = CN1CCN[C@H](C(=O)O)C1; Phe(3,5-F2) = N[C@@H](Cc1cc(F)cc(F)c1)C(=O)O; NH(1-Me-indolin-5-yl) = CN1CCc2cc(N*)ccc21; Phe(3-Cl) = N[C@@H](Cc1cccc(Cl)c1)C(=O)O; Morpholine(3S-CO) = O=C(O)[C@@H]1COCCN1; Phe(3-Me) = Cc1cccc(C[C@H](N)C(=O)O)c1; NH(4-Cl-2-F-phenyl) = Fc1cc(Cl)ccc1N*; Pro(4R-Me) = C[C@H]1CN[C@H](C(=O)O)C1; Hyp = O=C(O)[C@@H]1C[C@@H](O)CN1; NH(4-Et-phenyl) = CCc1ccc(N*)cc1; NH(4-Me-phenyl) = Cc1ccc(N*)cc1; aThr = C[C@H](O)[C@H](N)C(=O)O; Pip = O=C(O)[C@@H]1CCCCN1; X3 = c1cc2c(cc1N*)OCCO2; CO = O=C([*:1])[*:2]; X2 = Fc1cc(N*)ccc1Cl
# Tests used:
# Solubility determination = assay type: physicochemical; conditions: for solubility kinetic at 10 min: 22 °C, aqueous buffer, kinetic from dmso stock
# Method in brief: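 DMSO stock spiked into DPBS at 100 µM final, in triplicate, shaken 10 min, then centrifuged 20 min at 22 °C. Supernatant quantified by UPLC-UV and single-ion-recording MS against DMSO calibration standards (0.098–100 µM), using 1/x²-weighted linear regression.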
# [1] = Plasma protein binding, rapid equilibrium dialysis; assay type: in vitro ADME, mouse
# [2] = solubility in DPBS, 100 μM test samples, LCMS, read-out: LCMS
# [3] = plasma binding, % Bound, mouse plasma
Structure (SMILES),μsol (μM) (Solubility determination),solubility kinetic at 10 min (Solubility determination) [µM],"Mouse ([1]; mouse, 4 h, 10 μM, pH 7.4) [%]",solubility kinetic at 10 min (Solubility determination; [2]) [µM],μsol (μM) (Solubility determination; solubility) [µM],"Mouse [1, 3] [%]",μsol (μg/mL) (Solubility determination; solubility) [µg/mL]
"Cc1cccc(C[C@H](NC(=O)Nc2ccc3c(c2)OCO3)C(=O)N[C@H]2COC(=O)[C@@H]3C[C@@H](C)CN3C(=O)[C@H](C)NC(=O)[C@@H]3CCCCN3C(=O)[C@@H]3CCCN3C2=O)c1 [Compound 23, (S)-2-(3-(BENZO[D][1,3]DIOXOL-5-YL)UREIDO)-N-((2R,6S,8AS,14AS,20S,23AS)-2,6-DIMETHYL-5,8,14,19,23-PENTAOXOOCTADECAHYDRO-1H,5H,14H,19H-PYRIDO[2,1-I]DIPYRROLO[2,1-C:2′,1′-L][1]OXA[4,7,10,13]TETRAAZACYCLOHEXADECIN-20-YL)-3-(M-TOLYL)PROPANAMIDE]",3.0 ± 0.0 µM,1.7 ± 0.1,96.9 ± 0.1,–,–,–,–
"CCc1ccc(NC(=O)N[C@@H](Cc2cccc(C)c2)C(=O)N[C@@H]2C(=O)N3C[C@H](O)C[C@H]3C(=O)N3CCOC[C@H]3C(=O)N[C@@H](C)C(=O)N3C[C@H](C)C[C@H]3C(=O)O[C@H]2C)cc1 [Compound 24, (S)-2-(3-(4-ETHYLPHENYL)UREIDO)-N-((6AS,8R,12S,13S,15AS,17R,21S,23AS)-8-HYDROXY-13,17,21-TRIMETHYL-6,11,15,20,23-PENTAOXOOCTADECAHYDRO-6H,11H,15H-[1,4]OXAZINO[3,4-I]DIPYRROLO[2,1-C:2′,1′-L][1]OXA[4,7,10,13]TETRAAZACYCLOHEXADECIN-12-YL)-3-(M-TOLYL)PROPANAMIDE] ({NH(4-Et-phenyl)-CO}-[Phe(3-Me)][aThr][Hyp][Morpholine(3S-CO)]A[Pro(4R-Me)]; ester 2-C)",48.4 ± 0.7 µM,43.7 ± 0.9,98.2 ± 0.1,–,–,–,–
"CCc1ccc(NC(=O)N[C@@H](Cc2cccc(C)c2)C(=O)N[C@@H]2C(=O)N3C[C@H](O)C[C@H]3C(=O)N3CCCC[C@H]3C(=O)N[C@@H](C)C(=O)N3C[C@H](C)C[C@H]3C(=O)O[C@H]2C)cc1 [Compound 25, (S)-2-(3-(4-ETHYLPHENYL)UREIDO)-N-((2R,6S,8AS,14AS,16R,20S,21S,23AS)-16-HYDROXY-2,6,21-TRIMETHYL-5,8,14,19,23-PENTAOXOOCTADECAHYDRO-1H,5H,14H,19H-PYRIDO[2,1-I]DIPYRROLO[2,1-C:2′,1′-L][1]OXA[4,7,10,13]TETRAAZACYCLOHEXADECIN-20-YL)-3-(M-TOLYL)PROPANAMIDE] ({NH(4-Et-phenyl)-CO}-[Phe(3-Me)][aThr][Hyp][Pip]A[Pro(4R-Me)]; ester 2-C)",9.0 ± 0.3 µM,18.6 ± 1.17,99.5 ± 0.11,–,–,–,–
"Cc1ccc(NC(=O)N[C@@H](Cc2cccc(C)c2)C(=O)N[C@@H]2C(=O)N3C[C@H](O)C[C@H]3C(=O)N3CCCC[C@H]3C(=O)N[C@@H](C)C(=O)N3C[C@H](C)C[C@H]3C(=O)O[C@H]2C)cc1 [Compound 26, (S)—N-((2R,6S,8AS,14AS,16R,20S,21S,23AS)-16-HYDROXY-2,6,21-TRIMETHYL-5,8,14,19,23-PENTAOXOOCTADECAHYDRO-1H,5H,14H,19H-PYRIDO[2,1-I]DIPYRROLO[2,1-C:2′,1′-L][1]OXA[4,7,10,13]TETRAAZACYCLOHEXADECIN-20-YL)-3-(M-TOLYL)-2-(3-(P-TOLYL)UREIDO)PROPANAMIDE] ({NH(4-Me-phenyl)-CO}-[Phe(3-Me)][aThr][Hyp][Pip]A[Pro(4R-Me)]; ester 2-C)",–,–,–,45.3 ± 1.89,47.7 ± 0.4,99.1 ± 0.15,–
"Cc1cccc(C[C@H](NC(=O)Nc2ccc3c(c2)OCCO3)C(=O)N[C@@H]2C(=O)N3C[C@H](O)C[C@H]3C(=O)N3CCOC[C@H]3C(=O)N[C@@H](C)C(=O)N3C[C@H](C)C[C@H]3C(=O)O[C@H]2C)c1 [Compound 27, (S)-2-(3-(2,3-DIHYDROBENZO[B][1,4]DIOXIN-6-YL)UREIDO)-N-((6AS,8R,12S,13S,15AS,17R,21S,23AS)-8-HYDROXY-13,17,21-TRIMETHYL-6,11,15,20,23-PENTAOXOOCTADECAHYDRO-6H,11H,15H-[1,4]OXAZINO[3,4-I]DIPYRROLO[2,1-C:2′,1′-L][1]OXA[4,7,10,13]TETRAAZACYCLOHEXADECIN-12-YL)-3-(M-TOLYL)PROPANAMIDE] ({X3-CO}-[Phe(3-Me)][aThr][Hyp][Morpholine(3S-CO)]A[Pro(4R-Me)]; ester 2-C)",–,45.6 ± 5.6,93.2 ± 3.2,–,–,–,–
"Cc1cccc(C[C@H](NC(=O)Nc2ccc3c(c2)OCCO3)C(=O)N[C@@H]2C(=O)N3C[C@H](O)C[C@H]3C(=O)N3CCCC[C@H]3C(=O)N[C@@H](C)C(=O)N3C[C@H](C)C[C@H]3C(=O)O[C@H]2C)c1 [Compound 28, (S)-2-(3-(2,3-DIHYDROBENZO[B][1,4]DIOXIN-6-YL)UREIDO)-N-((2R,6S,8AS,14AS,16R,20S,21S,23AS)-16-HYDROXY-2,6,21-TRIMETHYL-5,8,14,19,23-PENTAOXOOCTADECAHYDRO-1H,5H,14H,19H-PYRIDO[2,1-I]DIPYRROLO[2,1-C:2′,1′-L][1]OXA[4,7,10,13]TETRAAZACYCLOHEXADECIN-20-YL)-3-(M-TOLYL)PROPANAMIDE] ({X3-CO}-[Phe(3-Me)][aThr][Hyp][Pip]A[Pro(4R-Me)]; ester 2-C)",30.2 ± 0.2 µM,34.7 ± 4.7,98.1 ± 8.1,–,–,–,–
"Cc1cccc(C[C@H](NC(=O)Nc2ccc(Cl)cc2F)C(=O)N[C@@H]2C(=O)N3C[C@H](OP(=O)(O)O)C[C@H]3C(=O)N3CCCC[C@H]3C(=O)N[C@@H](C)C(=O)N3C[C@H](C)C[C@H]3C(=O)O[C@H]2C)c1 [Compound 29, (2R,6S,8AS,14AS,16R,20S,21S,23AS)-20-((S)-2-(3-(4-CHLORO-2-FLUOROPHENYL)UREIDO)-3-(M-TOLYL)PROPANAMIDO)-2,6,21-TRIMETHYL-5,8,14,19,23-PENTAOXOOCTADECAHYDRO-1H,5H,14H,19H-PYRIDO[2,1-I]DIPYRROLO[2,1-C:2′,1′-L][1]OXA[4,7,10,13]TETRAAZACYCLOHEXADECIN-16-YL DIHYDROGEN PHOSPHATE] ({NH(4-Cl-2-F-phenyl)-CO}-[Phe(3-Me)][aThr][X5][Pip]A[Pro(4R-Me)]; ester 2-C)",–,–,–,66.6 ± 6.6,58.7 ± 8.7,96.9 ± 6.9,–
"Cc1ccc(NC(=O)N[C@@H](Cc2cccc(C)c2)C(=O)N[C@@H]2C(=O)N3C[C@H](O)C[C@H]3C(=O)N3CCN(C)C[C@H]3C(=O)N[C@@H](C)C(=O)N3C[C@H](C)C[C@H]3C(=O)O[C@H]2C)cc1 [Compound 30, (S)—N-((6AS,8R,12S,13S,15AS,17R,21S,23AS)-8-HYDROXY-2,13,17,21-TETRAMETHYL-6,11,15,20,23-PENTAOXOOCTADECAHYDRO-2H,6H,11H,15H-PYRAZINO[2,1-I]DIPYRROLO[2,1-C:2′,1′-L][1]OXA[4,7,10,13]TETRAAZACYCLOHEXADECIN-12-YL)-3-(M-TOLYL)-2-(3-(P-TOLYL)UREIDO)PROPANAMIDE] ({NH(4-Me-phenyl)-CO}-[Phe(3-Me)][aThr][Hyp][Piperazine(2S-CO,4-Me)]A[Pro(4R-Me)]; ester 2-C)",–,–,–,68.8 ± 8.8,54.5 ± 4.5,92.4 ± 2.4,–
"Cc1cccc(C[C@H](NC(=O)Nc2ccc(Cl)cc2F)C(=O)N[C@@H]2C(=O)N3C[C@H](O)C[C@H]3C(=O)N3CCN(C)C[C@H]3C(=O)N[C@@H](C)C(=O)N3C[C@H](C)C[C@H]3C(=O)O[C@H]2C)c1 [Compound 31, (S)-2-(3-(4-CHLORO-2-FLUOROPHENYL)UREIDO)-N-((6AS,8R,12S,13S,15AS,17R,21S,23AS)-8-HYDROXY-2,13,17,21-TETRAMETHYL-6,11,15,20,23-PENTAOXOOCTADECAHYDRO-2H,6H,11H,15H-PYRAZINO[2,1-I]DIPYRROLO[2,1-C:2′,1′-L][1]OXA[4,7,10,13]TETRAAZACYCLOHEXADECIN-12-YL)-3-(M-TOLYL)PROPANAMIDE] ({NH(4-Cl-2-F-phenyl)-CO}-[Phe(3-Me)][aThr][Hyp][Piperazine(2S-CO,4-Me)]A[Pro(4R-Me)]; ester 2-C)",54.7 ± 4.7 µM,68.9 ± 8.9,96.9 ± 6.9,–,–,–,–
"C[C@@H]1C[C@H]2C(=O)O[C@@H](C)[C@H](NC(=O)[C@H](Cc3cc(F)cc(F)c3)NC(=O)Nc3ccc4c(c3)CCN4C)C(=O)N3CCC[C@H]3C(=O)N3CCOC[C@H]3C(=O)N[C@@H](C)C(=O)N2C1 [Compound 32] ({NH(1-Me-indolin-5-yl)-CO}-[Phe(3,5-F2)][aThr]P[Morpholine(3S-CO)]A[Pro(4R-Me)]; ester 2-C)",–,–,–,71.5 ± 1.5,73.4 ± 3.4,91.5 ± 1.5,62.5 ± 2.1
"C[C@@H]1C[C@H]2C(=O)O[C@@H](C)[C@H](NC(=O)[C@H](Cc3cccc(Cl)c3)NC(=O)Nc3ccc(Cl)cc3F)C(=O)N3CCC[C@H]3C(=O)N3CCN(C)C[C@H]3C(=O)N[C@@H](C)C(=O)N2C1 [Compound 33] ({NH(4-Cl-2-F-phenyl)-CO}-[Phe(3-Cl)][aThr]P[Piperazine(2S-CO,4-Me)]A[Pro(4R-Me)]; ester 2-C)",17.2 ± 7.2 µM,12.8 ± 2.8,99.5 ± 9.5,–,–,–,–
"C[C@@H]1C[C@H]2C(=O)OC[C@H](NC(=O)[C@H](Cc3cc(F)cc(F)c3)NC(=O)Nc3ccc(Cl)cc3F)C(=O)N3CCC[C@H]3C(=O)N3CCN(C)C[C@H]3C(=O)N[C@@H](C)C(=O)N2C1 [Compound 34] ({NH(4-Cl-2-F-phenyl)-CO}-[Phe(3,5-F2)]SP[Piperazine(2S-CO,4-Me)]A[Pro(4R-Me)]; ester 2-C)",38.7 ± 8.7 µM,53.6 ± 3.58,97.5 ± 7.5,–,–,–,–
"Cc1cccc(C[C@H](NC(=O)Nc2ccc(Cl)c(F)c2)C(=O)N[C@@H]2C(=O)N3CCC[C@H]3C(=O)N3CCCC[C@H]3C(=O)N[C@@H](C)C(=O)N3C[C@H](C)C[C@H]3C(=O)O[C@H]2C)c1 [Compound 35, (S)-2-(3-(4-CHLORO-3-FLUOROPHENYL)UREIDO)-3-(M-TOLYL)-N-((2R,6S,8AS,14AS,20S,21S,23AS)-2,6,21-TRIMETHYL-5,8,14,19,23-PENTAOXOOCTADECAHYDRO-1H,5H,14H,19H-PYRIDO[2,1-I]DIPYRROLO[2,1-C:2′,1′-L][1]OXA[4,7,10,13]TETRAAZACYCLOHEXADECIN-20-YL)PROPANAMIDE] ({X2-CO}-[Phe(3-Me)][aThr]P[Pip]A[Pro(4R-Me)]; ester 2-C)",0.9 ± .95 µM,0.002 ± 0.002,99.7 ± 9.7,–,–,–,–
